Laboratory results: the NIST ThermoML archive (doi:10.1021/acs.jced.7b00702)

Conditions: 100 kPa, Liquid; for viscosity: Falling or rolling sphere viscometry; for mass density: Vibrating tube method

CCn1cc[n+](C)c1.[Cl-].[Cl][Al]([Cl])[Cl] [1-ethyl-3-methyl-1H-imidazolium tetrachloroaluminate]
Conditions	mass density [kg/m3]	viscosity [mPa·s]
293.15 K	1299.32	20.62
303.15 K	1291.13	15.69
313.15 K	1283.05	12.31
323.15 K	1275.03	9.952
333.15 K	1267.1	8.214
343.15 K	1259.22	6.927
353.15 K	1251.41	5.945
